Literature values in US20200138036A1, “FUMIGANT FORMULATION” (Linde Aktiengesellschaft, priority 2017, published 2020).
Counter-ions that a name gives are not always drawn.

Details: at 20° C.

## CCOC=O [Ethyl formate]
  vapour pressure: 25.9 kPa
